From ChEMBL document CHEMBL4330105, “Identification of novel azaindazole CCR1 antagonist clinical candidates” (Bioorg Med Chem Lett, 2019)

Experiments:
Assay type in all cases: ADME, organism-based
[1] = Clearance in Sprague-Dawley rat at 10 mg/kg, po or 1 mg/kg, iv relative to hepatic blood flow; conditions: in vivo
[2] = Volume of distribution at steady state in Sprague-Dawley rat at 10 mg/kg, po or 1 mg/kg, iv; conditions: in vivo, read-out: Vdss
[3] = Oral bioavailability in Sprague-Dawley rat at 10 mg/kg; conditions: in vivo

CS(=O)(=O)c1cc(CNC(=O)c2cncc3c2cnn3-c2ccc(F)cc2)ccn1
CL [1]: 8% | Vd [2]: 1.2 L/kg | bioavailability [3]: 29%
